Our source for the IC50, inhibition and Activity values is ChEMBL document CHEMBL5046257, “Synthesis and Evaluation of Bakuchiol Derivatives as Potent Anti-inflammatory Agents in Vitro and in Vivo” (J Nat Prod, 2022).

SMILES strings stand for the structures. Calls of active or inactive are those of the source. No cut-off for these calls is given here.

Data set [1] can be described thus: Cytotoxicity against mouse RAW 264.7 cells assessed as decreased cell viability measured after 24 hrs by MTT assay. Format: toxicity, cell-based, RAW264.7. In general terms: Formazan colour is commonly taken as a measure of viable cells.
Data set [2] has as its system RAW264.7. In words: Antiinflammatory activity in mouse RAW264.7 cells assessed as inhibition of LPS-induced ROS production at 5 to 10 uM for 1 hrs followed by LPS stimulation for 23 hrs by DCFH-DA staining based fluorescence assay. Format: functional, cell-based. The settings on record: dose 5-10 µM, time 24.0 hrs.
In data set [3] the test system is RAW264.7. The experiment in a line: Antiinflammatory activity in mouse RAW 264.7 cells assessed as inhibition of LPS-induced TNF-alpha production at 20 uM for 1 hrs followed by LPS stimulation for 23 hrs by ELISA. Format: functional, cell-based. The settings on record: time 24.0 hrs. For orientation: ELISA stands for enzyme-linked immunosorbent assay.
Data set [4] deals with RAW264.7. The experiment in a line: Antiinflammatory activity against mouse RAW264.7 cells assessed as inhibition of LPS-induced COX2 expression at 5 to 10 uM for 1 hrs followed by LPS stimulation for 23 hrs by western blot analysis. The settings on record: dose 5-10 µM, time 24.0 hrs. Format: functional, cell-based. In general terms: A western blot detects proteins with antibodies after separation by electrophoresis.

Data set [5] concerns RAW264.7. In words: Antiinflammatory activity in mouse RAW 264.7 cells assessed as inhibition of LPS-induced IL-6 production at 5 to 10 uM for 1 hrs followed by LPS stimulation for 23 hrs by ELISA. Format: functional, cell-based. The conditions noted are these: dose 5-10 µM, time 24.0 hrs.
For data set [6], the system named is RAW264.7. The experiment in a line: Antiinflammatory activity in mouse RAW 264.7 cells assessed as inhibition of LPS-induced TNF-alpha production at 5 to 10 uM for 1 hrs followed by LPS stimulation for 23 hrs by ELISA. Format: functional, cell-based. The conditions noted are these: dose 5-10 µM, time 24.0 hrs.
Data set [7] concerns RAW264.7. In words: Antiinflammatory activity in mouse RAW264.7 cells assessed as upregulation of LPS-induced NRF2 expression at 5 to 10 uM for 1 hrs followed by LPS stimulation for 23 hrs by Western blot analysis. Format: functional, cell-based. The settings on record: dose 5-10 µM, time 24.0 hrs.
Data set [8] relates to RAW264.7. The experiment in a line: Antiinflammatory activity in mouse RAW 264.7 cells assessed as inhibition of LPS-induced NO production at 20 uM for 1 hrs pretreatment followed by LPS stimulation for 23 hrs by Griess reagent assay. Format: functional, cell-based. The settings on record: time 24.0 hrs.
Data set [9] deals with RAW264.7. The experiment in a line: Antiinflammatory activity against mouse RAW264.7 cells assessed as inhibition of LPS-induced iNOS expression at 5 to 10 uM for 1 hrs followed by LPS stimulation for 23 hrs by western blot analysis. Format: functional, cell-based. The settings on record: dose 5-10 µM, time 24.0 hrs.
Data set [10] relates to RAW264.7. In words: Antiinflammatory activity against mouse RAW264.7 cells assessed as inhibition of LPS-induced COX2 expression at 10 uM for 1 hrs followed by LPS stimulation for 23 hrs by western blot analysis. Format: functional, cell-based. The conditions noted are these: time 24.0 hrs.
Data set [11] is filed under the species Danio rerio. In words: Antiinflammatory activity in zebrafish assessed as inhibition of LPS-induced ROS production at 2.5 to 5 uM for 24 hrs by laser confocal microscope. Format: functional, organism-based. The settings on record: dose 2.5-5 µM.
Data set [12] concerns RAW264.7. The experiment in a line: Antiinflammatory activity in mouse RAW264.7 cells assessed as downregulation of LPS-induced JNK phosphorylation at 5 to 10 uM for 1 hrs followed by LPS stimulation for 23 hrs by Western blot analysis. Format: functional, cell-based. The settings on record: dose 5-10 µM, time 24.0 hrs.
Data set [13] concerns RAW264.7. In words: Antiinflammatory activity in mouse RAW264.7 cells assessed as inhibition of LPS-induced IKKbeta phosphorylation at 5 to 10 uM for 1 hrs followed by LPS stimulation for 23 hrs by Western blot analysis. The settings on record: dose 5-10 µM, time 24.0 hrs. Format: functional, cell-based.
In data set [14] the test system is RAW264.7. In words: Antiinflammatory activity in mouse RAW264.7 cells assessed as upregulation of LPS-induced HO-1 expression at 5 to 10 uM for 1 hrs followed by LPS stimulation for 23 hrs by Western blot analysis. Format: functional, cell-based. The settings on record: dose 5-10 µM, time 24.0 hrs.
Data set [15] has as its system RAW264.7. In words: Antiinflammatory activity in mouse RAW 264.7 cells assessed as inhibition of LPS-induced IL-6 production at 20 uM for 1 hrs followed by LPS stimulation for 23 hrs by ELISA. The settings on record: time 24.0 hrs. Format: functional, cell-based.
The test system of data set [16] is RAW264.7. The experiment in a line: Antiinflammatory activity against mouse RAW264.7 cells assessed as inhibition of LPS-induced iNOS expression at 10 uM for 1 hrs followed by LPS stimulation for 23 hrs by western blot analysis. Format: functional, cell-based. The settings on record: time 24.0 hrs.
The species entered for data set [17] is Danio rerio. In words: Antiinflammatory activity in zebrafish assessed as inhibition of LPS-induced NO production at 2.5 to 5 uM for 24 hrs by laser confocal microscope. The settings on record: dose 2.5-5 µM. Format: functional, organism-based.
For data set [18], the system named is RAW264.7. In words: Antiinflammatory activity in mouse RAW264.7 cells assessed as downregulation of LPS-induced ERK phosphorylation at 5 to 10 uM for 1 hrs followed by LPS stimulation for 23 hrs by Western blot analysis. Format: functional, cell-based. The settings on record: dose 5-10 µM, time 24.0 hrs.
Data set [19] concerns RAW264.7. In words: Antiinflammatory activity in mouse RAW264.7 cells assessed as inhibition of LPS-induced NFkB p65 activation at 5 to 10 uM for 1 hrs followed by LPS stimulation for 23 hrs by Western blot analysis. Format: functional, cell-based. The conditions noted are these: dose 5-10 µM, time 24.0 hrs.
Data set [20] deals with RAW264.7. In words: Antiinflammatory activity in mouse RAW264.7 cells assessed as downregulation of LPS-induced MAPK phosphorylation at 5 to 10 uM for 1 hrs followed by LPS stimulation for 23 hrs by Western blot analysis. Format: functional, cell-based. The conditions noted are these: dose 5-10 µM, time 24.0 hrs.

As a reminder, the IC50 is the midpoint of a concentration-inhibition curve. With `C=C[C@@](C)(/C=C/c1ccc(OCc2cn(Cc3ccc(OC)cc3)nn2)cc1)CCC=C(C)C`, in data set [1], the IC50 at 24 h turned out to be 273 µM.
Take `C=C[C@@](C)(/C=C/c1ccc(O)cc1)CCC=C(C)C` [BAKUCHIOL]: in data set [1], the IC50 at 24 h was determined as 97.2 µM.
As to `C=C[C@@](C)(/C=C/c1ccc(OC(=O)c2ccc3ncccc3c2)cc1)CCC=C(C)C`, the IC50 at 24 h in data set [1] came to 88 µM.
Regarding `C=C[C@@](C)(/C=C/c1ccc(OCc2cn(-c3ccc(C)cc3)nn2)cc1)CCC=C(C)C`, in [1], the IC50 at 24 h amounted to 86.9 µM.
On to `C=C[C@@](C)(/C=C/c1ccc(OC(=O)c2cc3cc(OC)ccc3[nH]2)cc1)CCC=C(C)C`, for which the IC50 at 24 h in [1] turned out to be 329 µM.
Same read-out and setting: in the case of `C=C[C@@](C)(/C=C/c1ccc(OC(=O)c2cc3cc(Cl)ccc3[nH]2)cc1)CCC=C(C)C` it was 110 µM.
For `C=C[C@@](C)(/C=C/c1ccc(OCc2cn(-c3ccc(Cl)cc3)nn2)cc1)CCC=C(C)C`, the IC50 at 24 h in data set [1] stood at 47.6 µM.
For the compound `C=C[C@@](C)(/C=C/c1ccc(OCC(=O)N2CCCC2)cc1)CCC=C(C)C`, the inhibition entry in data set [2], in [4], in data set [5], in data set [6], in data set [9] and in [11] was “Dose-Dependent Effect” throughout. Also, the inhibition result in data set [17] was “Dose-Dependent Effect”. Besides, the inhibition result in [3], in [8], in data set [10], in data set [13], in data set [15] and in data set [16] was “Active” in each case. The inhibition result in [19] is “Active”. Also, the Activity result in [7] and in data set [14] was “Dose-Dependent Effect” each time. Moreover, the IC50 at 24 h in data set [1] was 40.5 µM. The outcome in data set [12], in data set [18] and in [20] was Active.
`C=C[C@@](C)(/C=C/c1ccc(OCC(=O)NC(c2ccc(C)cc2)P(=O)(OCC)OCC)cc1)CCC=C(C)C` (stereo not given in full): in [1], the IC50 at 24 h stood at 209 µM.
On the same count and under the same terms, in the case of `C=C[C@@](C)(/C=C/c1ccc(OCC(=O)NC(c2ccccc2)P(=O)(OCC)OCC)cc1)CCC=C(C)C` (stereo not given in full) it was 33.4 µM.
Same read-out and setting: in the case of `C=C[C@@](C)(/C=C/c1ccc(OCC(=O)Nc2ccccc2)cc1)CCC=C(C)C` it was 63.3 µM; in that of `C=C[C@@](C)(/C=C/c1ccc(OC(=O)c2cn(-c3ccc(OC)cc3)nn2)cc1)CCC=C(C)C`, 64.7 µM.
Regarding `C=C[C@@](C)(/C=C/c1ccc(OCC(=O)Nc2ccc(F)cc2)cc1)CCC=C(C)C`, the IC50 at 24 h in data set [1] came out at 59.1 µM.
As for `C=C[C@@](C)(/C=C/c1ccc(OC(=O)/C=C/c2ccccc2)cc1)CCC=C(C)C`, in [1], the IC50 at 24 h worked out at 157 µM.
The same measure, in the same setting: under `C=C[C@@](C)(/C=C/c1ccc(OC(=O)c2cn(-c3ccc(Cl)cc3)nn2)cc1)CCC=C(C)C` stands 115 µM.
Turning to `C=C[C@@](C)(/C=C/c1ccc(OCc2cn(-c3ccccc3)nn2)cc1)CCC=C(C)C`, in data set [1], the IC50 at 24 h worked out at 172 µM.
As for `C=C[C@@](C)(/C=C/c1ccc(OCC(=O)NC(c2ccc(F)cc2)P(=O)(OCC)OCC)cc1)CCC=C(C)C` (stereo not given in full), the IC50 at 24 h in data set [1] came to 110 µM.
The same measure, in the same setting: in the case of `C=C[C@@](C)(/C=C/c1ccc(OCc2cn(Cc3ccccc3)nn2)cc1)CCC=C(C)C` it was 480 µM; in that of `C=C[C@@](C)(/C=C/c1ccc(OC(=O)c2cn(-c3ccc(C)cc3)nn2)cc1)CCC=C(C)C`, 37.2 µM; in that of `C=C[C@@](C)(/C=C/c1ccc(OCc2cn(-c3ccc(C(F)(F)F)cc3)nn2)cc1)CCC=C(C)C`, 82.1 µM.
Still for that read-out and setting: in the case of `C=C[C@@](C)(/C=C/c1ccc(OC(=O)c2cc3ccccc3[nH]2)cc1)CCC=C(C)C` it was 108 µM.
As to `C=C[C@@](C)(/C=C/c1ccc(OCc2cn(-c3ccc(OC)cc3)nn2)cc1)CCC=C(C)C`, the IC50 at 24 h in data set [1] came to 47.4 µM.
Same read-out and setting: under `C=C[C@@](C)(/C=C/c1ccc(OCc2cn(Cc3ccc(Cl)cc3)nn2)cc1)CCC=C(C)C` stands 327 µM; under `C=C[C@@](C)(/C=C/c1ccc(OCC(=O)N2CCCCC2)cc1)CCC=C(C)C`, 58.6 µM; under `C=C[C@@](C)(/C=C/c1ccc(OCc2cn(Cc3ccc(F)cc3)nn2)cc1)CCC=C(C)C`, 157 µM.
The same measure, in the same setting: under `C=C[C@@](C)(/C=C/c1ccc(OCC(=O)Nc2cccc3cccnc23)cc1)CCC=C(C)C` stands 649 µM; under `C=C[C@@](C)(/C=C/c1ccc(OCC(=O)Nc2ccc(Cl)cc2)cc1)CCC=C(C)C`, 50.7 µM; under `C=C[C@@](C)(/C=C/c1ccc(OCc2cn(-c3ccc(F)cc3)nn2)cc1)CCC=C(C)C`, 233 µM.
For the compound `C=C[C@@](C)(/C=C/c1ccc(OC(=O)c2cn(-c3ccc(F)cc3)nn2)cc1)CCC=C(C)C`, the IC50 at 24 h in data set [1] stood at 79.9 µM.
Regarding `C=C[C@@](C)(/C=C/c1ccc(OCc2cn(Cc3ccc(C)cc3)nn2)cc1)CCC=C(C)C`, the IC50 at 24 h in data set [1] was 371 µM.
`C=C[C@@](C)(/C=C/c1ccc(OC(=O)c2cn(-c3ccccc3)nn2)cc1)CCC=C(C)C`: in data set [1], the IC50 at 24 h amounted to 69.9 µM.
